Converted amounts (≈) assume the structure as drawn. Read-outs that look alike come from different tables or passages of the source.
Columns and labels:
E. coli CFT073 (UPEC) = experiment: MIC, standard microdilution assay, growing UPEC; format: cell-based, Escherichia coli
Outline: (§1)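 Medium: CA-MHB + 40 mM HEPES, pH 7.4 (UPEC, P. aeruginosa, S. aureus); LPM + 30 mM MES, pH 5.5 (UPEC, extra condition); TSB (S. flexneri). Microdilution format, n = 3.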

[1] = test system: non-growing P. aeruginosa DSM1117; experiment: Dilution-regrowth assay (OD600, start-growth-time) on stationary-phase P. aeruginosa; format: cell-based, Pseudomonas aeruginosa; details: P. aeruginosa; for EC50: regrowth delay of non-growing bacteria, 1:4 CA-MHB pH 7.4, 24 h treatment, OD600 8 h after dilution, read-out: EC50
Experimental: To determine the spectrum of activity of the compounds that were effective against non-growing UPEC, we further assessed their efficacy against the well-characterized Gram-negative and Gram-positive reference strains P. aeruginosa DSM1117 and S. aureus DSM2569, respectively. The cultures were grown and treated for 24 h in 1:4 CA-MHB (pH 7.4). […].
For better characterization of the compounds causing the strongest regrowth delay, we performed the regrowth step of the dilution-regrowth experiments on a plate reader, measuring the OD600 at 20-min intervals for over 20 h instead of using an endpoint measurement. This approach allowed us to capture the time when cultures reached a threshold optical density (start-growth-time, SGT[15]).
Overnight cultures of UPEC, P. aeruginosa and S. aureus were grown in test tubes containing 3 ml of LB broth (~16 h), then diluted 1:100 into either 1:4 diluted CA-MHB medium buffered with 40 mM HEPES (pH 7.4) or, in case of UPEC, into LPM medium[25] supplemented with 49 µM MgCl2 and buffered with 30 mM MES (pH 5.5). The cultures were incubated for 24 h in non-baffled Erlenmeyer flasks at 37 °C with shaking at 200 rpm.
For P. aeruginosa and S. aureus, dose–response analysis was conducted in 96-well plates with a 200 μl assay volume, following the procedure used for screening assay validation experiments. Aliquots of the 39 compounds active against non-growing UPEC were obtained from SelleckChem and MedChem Express. Stock solutions were prepared and stored according to the manufacturers’ instructions, then diluted in 10% DMSO before use. Cultures were incubated for 24 h in 1:4 diluted CA-MHB medium under the same conditions used for UPEC cultivation. In preliminary experiments, each compound was tested at a concentration of 20 μM in the dilution-regrowth assay with 4 technical replicates. Regrowth was monitored using a microplate reader at 37 °C with continuous shaking, and OD600 was recorded every 20 min. The time at which OD600 exceeded the threshold of 0.12 was recorded as the Start_Growth-Time.
The statistical analysis of all data, as well as EC50 and IC50 determination, was conducted using GraphPad Prism 10.2.3. Statistical significance of the drug effects was assessed using a one-way ANOVA followed by Dunnett’s test, comparing each treatment to the drug-free control. Statistical significance of the differences in chemical characteristics between the hit compounds and the Prestwick library was assessed using a Mann–Whitney test. Statistical significance was set at P ≤ 0.05. A five-parameter logistic equation was used for asymmetric sigmoidal curve fitting and for EC50 and IC50 determination. The Venn diagram in Fig. 1F was prepared using BioVenn web application. Characteristics of the chemical and physical properties of Prestwick library compounds were obtained from Supplementary Table S1 from reference. Characteristics of the hit compounds not included in the Prestwick library were retrieved from the PubChem database.

P. aeruginosa DSM1117 = experiment: MIC, standard microdilution assay, growing P. aeruginosa; format: cell-based, Pseudomonas aeruginosa; details: P. aeruginosa
Outline: as §1

[2] = test system: intracellular S. flexneri 5a M90T in TC7 cells; experiment: microbe, parasite or virus in culture; format: cell-based, Shigella flexneri; details: for IC50: Shigella flexneri, TC7, 14 h
S. flexneri 5a M90T = experiment: MIC in tryptic soy broth, S. flexneri; format: cell-based, Shigella flexneri; details: for MIC: Shigella flexneri, 5AM90T, read-out: MIC (μM) TSB
Outline: as §1

[3] = Escherichia coli, E. coli, LPM pH 5.5, read-out: MIC
[4] = Escherichia coli, E. coli, pH 7.4, CA-MHB, read-out: MIC (μM) CA-MHB
[5] = Pseudomonas aeruginosa, DSM1117
[6] = Pseudomonas aeruginosa, DSM1117, 1:4 diluted CA-MHB pH 7.4, read-out: MIC (μM) 1:4 CA-MHB
[7] = Pseudomonas aeruginosa, DSM1117, CA-MHB pH 7.4, read-out: MIC (μM) CA-MHB
[8] = TC7 cells infected with GFP-expressing S. flexneri, 14 h treatment

Structure (SMILES)	MIC (E. coli CFT073 (UPEC); [3]) [µM]	MIC (E. coli CFT073 (UPEC); [4]) [µM]	EC50 [1, 5] [nM]	MIC (P. aeruginosa DSM1117; [6]) [µM]	MIC (P. aeruginosa DSM1117; [7]) [µM]	IC50 [2] [nM]	Fluorescence intensity (RFU), Mean, 2 x MIC [2, 8] [RFU]	Fluorescence intensity (RFU), Mean, 4 x MIC [2, 8] [RFU]	Fluorescence intensity (RFU), Mean, 8 x MIC [2, 8] [RFU]	Fluorescence intensity (RFU), Mean, 16 x MIC [2, 8] [RFU]	Fluorescence intensity (RFU), Mean, 32 x MIC [2, 8] [RFU]	Fluorescence intensity (RFU), Mean, MIC [2, 8] [RFU]	MIC (S. flexneri 5a M90T) [µM]	Fluorescence intensity (RFU), Mean, 0.25 x MIC [2, 8] [RFU]	Fluorescence intensity (RFU), Mean, 0.5 x MIC [2, 8] [RFU]	further results
O=C(O)c1cn(-c2ccc(F)cc2)c2cc(N3CCNCC3)c(F)cc2c1=O [Sarafloxacin]	0.5 (≈ 0.193 µg/mL)	0.05 (≈ 0.0193 µg/mL)	216	2 (≈ 0.771 µg/mL)	2 (≈ 0.771 µg/mL)	114	5001.97	3626.47	3165.28	2660.39	2149.72	7309.11	0.0625 (≈ 0.0241 µg/mL)			
CC(=O)[O][Pt]([NH2])([Cl])([Cl])([NH]C1CCCCC1)[O]C(C)=O [Satraplatin]							2689					4882		8685.25	7328.94	MIC (E. coli CFT073 (UPEC); E. coli, LPM pH 5.5, read-out: MIC): 32 µM; MIC (E. coli CFT073 (UPEC); E. coli, pH 7.4, CA-MHB, read-out: MIC (μM) CA-MHB): >160 µM; Regrowth, OD600 at 6h or 8h after dilution into drug-free medium (average) ([1]; drug concentration 0.1): 0.622; Regrowth, OD600 at 6h or 8h after dilution into drug-free medium (average) ([1]; drug concentration 0.5): 0.518; Regrowth, OD600 at 6h or 8h after dilution into drug-free medium (average) ([1]; drug concentration 2.5): 0.207; Regrowth, OD600 at 6h or 8h after dilution into drug-free medium (average) ([1]; drug concentration 10): 0.094; EC50 [1]: 1200 nM; MIC (P. aeruginosa DSM1117; CA-MHB pH 7.4, read-out: MIC (μM) CA-MHB): 160 µM; Fluorescence intensity (RFU), Mean, 0.0625 x MIC ([2]; TC7 cells infected with GFP-expressing S. flexneri, 14 h treatment, 0.0625 x MIC): 9460.97 RFU; Fluorescence intensity (RFU), Mean, 0.125 x MIC ([2]; TC7 cells infected with GFP-expressing S. flexneri, 14 h treatment, 0.125 x MIC): 9284.03 RFU; MIC (μM) TSB (S. flexneri 5a M90T; S. flexneri, extracellular bacteria in TSB): 128 µM
NC1CCN(c2c(F)cc3c(=O)c(C(=O)O)cn(C4CC4)c3c2Cl)C1 (centres unmarked) [Clinafloxacin]		0.0125 (≈ 0.00457 µg/mL)	41	0.25 (≈ 0.0914 µg/mL)	0.5 (≈ 0.183 µg/mL)	10	3160.53	3034.56	2732.08	2021.17	1621.75	4423.92	0.0156 (≈ 0.00572 µg/mL)	7691.46	5544.33	MIC (E. coli CFT073 (UPEC); Escherichia coli, see Dataset 1, read-out: MIC (lowest measured MIC for all hit compounds)): 0.0125 µM (≈ 0.00457 µg/mL)
CC1Sc2c(C(=O)O)c(=O)c3cc(F)c(N4CCNCC4)cc3n21 (centres unmarked) [Ulifloxacin]	0.125 (≈ 0.0437 µg/mL)	0.025 (≈ 0.00873 µg/mL)	82	0.5 (≈ 0.175 µg/mL)	0.5 (≈ 0.175 µg/mL)	101	6924.86	4362.58	3208.03	2720.44	2065.19	8271.31	0.0312 (≈ 0.0109 µg/mL)			

— paper PMC11992225, “Antibacterial compounds against non-growing and intracellular bacteria” (npj Antimicrobials and Resistance, 2025)
